Test results: US4288609A, “Quaternary ammonium derivatives of adamantane with antimicrobic activity” (priority 1976, dated 1981)
Several values for one entry are separate records, joined by “and”; a condition that tells them apart may be missing. Identical values can stand only once. Like-named read-outs stand apart in the source and are kept apart here.

Legend:
Trich. Foetus ISM 66/23 = assay: MIC protozoa, Trichomonas foetus (Table 2); assay type: cell-based; details: +10% serum (head), Kupferberg Trichomonas broth with 5% of horse serum
Method: (§1) The method for evaluating the activity in vitro against bacteria, fungi and protozoa consists in introducing calculated quantities of the substance, the activity of which it is desired to test, into culture media already inoculated with a predetermined number of test germs.
(§2) After 24 or 48 hours of incubation at 30° or 37° C., according to the micro-organism being tested, it is possible to evaluate the growth of the same in the culture broth; in this manner the minimum concentration (M.I.C.) which inhibits the growth of the micro-organisms in vitro is determined.
Inoculation with Trichomonas vaginalis and Trichomonas foetus, obtained from cultures transplanted every other day to make them lively, was effected in a ratio of 3.5% of the volume of medium used.
(§3) For the fungi Sabourand broth was used as a culture medium, whilst for the protozoa Kupferberg Trichomonas broth with 5% of horse serum was used.

Pseudomonas Aeruginosa = assay: Antibacterial activity in vivo with topical treatment (Table 5); parameters: species or system female CF1 albino mice; details: for animals alive on the 15th day / animals dead on the 15th day: 10 animals; for % survivors: topical, 15th day; for efficacy in vivo (in words): other concentrations considered
Method: After their backs have been shaved, female CF1 albino mice weighing 18-22 g are scorched (under ether anaesthetic) for 15 seconds with a pad of brass previously immersed in boiling water (7-8% of the body surface). After 90 minutes there is applied to the scorched area 0.1 ml of a suspension of Pseudomonas Aeruginosa bacteria having 15% transmittance at 650 nm. The bacterial strain in question produces a high incidence of mortality, induced by septicemic diffusion from the point of infection. After 90 minutes, with the aid of a glass rod suitably flattened at one end, the preparation containing a known concentration of the compound under examination is applied locally. The treatment is continued for a total of six days (once per day). On the fifteenth day the percentage of survivors to the tested doses in recorded.
The carrier used for applying the compounds under examination is an aqueous 0.75% solution of carboxymethyl-cellulose. The concentrations of the compounds tested are 2, 1, 0.5 and 0.25% by weight.

Candida Albic. SKF 2270 = assay: MIC yeasts, Candida albicans (Table 2); assay type: cell-based; details: for MIC: Sabourand broth; for activity on Candida albicans, times greater than that of cetyl pyridine chloride: in the absence of serum; for activity on Candida albicans, times higher than that of cetyl pyridine chloride: in the presence of 10% of horse serum
Method: as §1, §2
(§4) Inoculation with Candida albicans or Candida pseudotropicalis was made by diluting cultures grown for 24 h at 30° C. (cellular density inoculated 10^3 /ml).
as §3

[1] = test system: Streptococ. Henclyt. 0203; assay: M.I.C. in vitro, gram+ Streptococ. Henclyt. (Table 1); assay type: cell-based; details: for MIC: read-out: M.I.C.
Method: as §1, §2
(§5) In table 1 there are recorded the M.I.C. values in γ/ml of the products subject of the present invention, against certain gram+ and gram- bacterial strains, some of which are pathogenic towards human beings.

Klens. Pneum. ISM = assay: M.I.C. in vitro, gram- Klens. Pneum. (Table 1); assay type: cell-based; details: for MIC: read-out: M.I.C.
Method: as §1, §2, §5

Staph.Aureus Tour = assay: M.I.C. in vitro, gram+ Staph. Aureus (Table 1); assay type: cell-based, Staphylococcus Aureus; details: for MIC: Staphylococcus aureus, read-out: M.I.C.
Method: as §1, §2, §5

[2] = test system: Trichophyton Mentagrophytes; assay: Topical activity upon dermatophytis from Trichophyton in cavies (Table 6); assay type: in vivo, Albino cavies; details: for evaluation of seriousness of infection (A.D.I.): average index
Method: Albino cavies of 250-300 g are infected, after depilation and scarification of a circular area of dorsal skin upon which there are supplied 0.1 ml of a suspension of microconidia of Trichophyton Mentagrophytes from the Pasteur Institute collection, obtained from a culture of 15 days upon Saboureaud agar. 24 Hours after infection topical treatment is started and is continued for two weeks (once per day).
The compounds to be tested are dissolved or suspended at the desired concentration, in a water-alcohol mixture (75/25 v/v) containing 0.75% by weight of carboxymethyl-cellulose (CMC). […] Each single application is carried out using 0.25 ml of the suspension or solution obtained as described above.
Fourteen days after infection the lesions are assessed. Assessment is carried out by attributing index numbers depending upon the seriousness of the lesions formed, as follows:
The substances under examination were tested at concentrations of 5 and 2.5% by weight.

Esch. Coli. SKF 12140 = assay: M.I.C. in vitro, gram- Esch. Coli (Table 1); assay type: cell-based, Escherichia Coli; details: Escherichia coli, read-out: M.I.C.
Method: as §1, §2, §5

[3] = test system: Candida Pseudotrop. ATCC 2512; assay: MIC yeasts, Candida pseudotropicalis (Table 2); assay type: cell-based; details: Sabourand broth
Method: as §1, §2, §4, §3

[4] = test system: Staphylococcus Aureus Tour; assay: Speed of sterilising action, Staphylococcus Aureus (Table 3); assay type: cell-based
Method: (§6) The strains, inoculants, culture broths and experimental methods are as already seen for calculating the M.I.C. in vitro. The antimicrobic substances were tested at concentrations of 0.1, 0.25, 0.5 and 1 g/l, the contact times taken into consideration are 0, 1, 2.5, 5, 7.5, 10, 15, 30 and 60 minutes.
(§7) The samples which at the 7th day of incubation still had no growth of micro-organisms which could be observed macroscopically and/or microscopically were considered sterile.
(§8) The results are recorded in Table 3 in terms of sterilization time expressed in minutes.

[5] = test system: Trichomonas Vaginalis ISM 66/22; assay: Speed of sterilising action, Trichomonas Vaginalis (Table 3); assay type: cell-based
Method: as §6, §7, §8

[6] = Tritrichomonas foetus, read-out: MIC
[7] = Candida, +10% serum, read-out: MIC
[8] = Candida, without serum, read-out: MIC
[9] = Candida, ATCC2512, +10% serum, read-out: MIC
[10] = Candida, ATCC2512, without serum, read-out: MIC

## CCCCCCCCCCCC[N+](C)(C)CCNC(=O)C12CC3CC(CC(C3)C1)C2 [Example 8]
Trich. Foetus ISM 66/23; [6]
  MIC: 1 µg/mL
Pseudomonas Aeruginosa; 0.25% by weight
  animals alive on the 15th day: 3
  animals dead on the 15th day: 7
  % survivors: 30%
Pseudomonas Aeruginosa; 0.5% by weight
  animals alive on the 15th day: 6
  animals dead on the 15th day: 5
  % survivors: 60%
Pseudomonas Aeruginosa; 1% by weight
  animals alive on the 15th day: 6
  animals dead on the 15th day: 4
  % survivors: 60%
Pseudomonas Aeruginosa; 2% by weight
  animals alive on the 15th day: 7
  animals dead on the 15th day: 3
  % survivors: 70%
Pseudomonas Aeruginosa
  efficacy in vivo (in words): secure efficacy
Candida Albic. SKF 2270; [7]
  MIC: 20 µg/mL
Candida Albic. SKF 2270; [8]
  MIC: 0.2 µg/mL
Candida Albic. SKF 2270
  activity on Candida albicans, times greater than that of cetyl pyridine chloride: about 25 times
  activity on Candida albicans, times higher than that of cetyl pyridine chloride: 5-10 times
[1]; +10% serum
  MIC: 1 µg/mL
[1]; without serum
  MIC: < 0.1 µg/mL
Klens. Pneum. ISM; +10% serum
  MIC: 50 µg/mL
Klens. Pneum. ISM; without serum
  MIC: 5 µg/mL
Staph.Aureus Tour; +10% serum
  MIC: 5 µg/mL
Staph.Aureus Tour; without serum
  MIC: < 0.1 µg/mL
[2]
  in vivo activity against Trichophyton Mentagrophytes (in words): excellent "in vivo" activity against Trichophyton Mentagrophytes
Esch. Coli. SKF 12140; +10% serum
  MIC: 100 µg/mL
Esch. Coli. SKF 12140; without serum
  MIC: 2 µg/mL
[3]; [9]
  MIC: 20 µg/mL
[3]; [10]
  MIC: < 0.1 µg/mL

## CCCCCCCCCC[N+](C)(C)CCOC(=O)C12CC3CC(CC(C3)C1)C2 (single isomer, unassigned) [Example 1, n-Decyl-dimethyl-(1-adamantane-carboxy)-ethyl-ammonium bromide]
Trich. Foetus ISM 66/23
  MIC: 2 µg/mL
Pseudomonas Aeruginosa; 0.25% by weight
  animals alive on the 15th day: 5
  animals dead on the 15th day: 5
  % survivors: 50%
Pseudomonas Aeruginosa; 0.5% by weight
  animals alive on the 15th day: 6
  animals dead on the 15th day: 4
Pseudomonas Aeruginosa; 1% by weight
  animals alive on the 15th day: 8
  animals dead on the 15th day: 2
  % survivors: 80%
Pseudomonas Aeruginosa; 2% by weight
  animals alive on the 15th day: 8
  animals dead on the 15th day: 2
  % survivors: 80%
Pseudomonas Aeruginosa
  efficacy in vivo (in words): secure efficacy
Candida Albic. SKF 2270; +10% serum
  MIC: 10 µg/mL
Candida Albic. SKF 2270
  activity on Candida albicans, times greater than that of cetyl pyridine chloride: about 25 times
  activity on Candida albicans, times higher than that of cetyl pyridine chloride: 5-10 times
Candida Albic. SKF 2270; without serum
  MIC: 0.2 µg/mL
[1]; +10% serum
  M.I.C.: 0.1 µg/mL
[1]; without serum
  MIC: < 0.1 µg/mL
Klens. Pneum. ISM; +10% serum
  MIC: 50 µg/mL
Klens. Pneum. ISM; without serum
  M.I.C.: 5 µg/mL
Staph.Aureus Tour; +10% serum
  M.I.C.: 2 µg/mL
Staph.Aureus Tour; without serum
  MIC: < 0.1 µg/mL
[4]; 0.1 g/l
  sterilization time: 7.5 min
[4]; 0.25 g/l
  sterilization time: 2.5 min
[4]; 0.5 g/l
  sterilization time: 1 min
[4]; 1 g/l
  sterilization time: 1 min
[5]; 0.1 g/l
  sterilization time: 2.5 min
[5]; 0.25 g/l
  sterilization time: 1 min
[5]; 0.5 g/l
  sterilization time: 1 min
[5]; 1 g/l
  sterilization time: 1 min
[2]; 2.5% by weight
  A.D.I. (% of control group): 31.09%
  healing % (100-A.D.I. %): 68.91%
  evaluation of seriousness of infection (A.D.I.): 0.83
[2]; 5% by weight
  A.D.I. (% of control group): 12.36%
  healing % (100-A.D.I. %): 87.64% and ~90%
  evaluation of seriousness of infection (A.D.I.): 0.33
[2]
  in vivo activity against Trichophyton Mentagrophytes (in words): excellent "in vivo" activity against Trichophyton Mentagrophytes
Esch. Coli. SKF 12140; +10% serum
  MIC: 50 µg/mL
Esch. Coli. SKF 12140; without serum
  MIC: 5 µg/mL
[3]; +10% serum
  MIC: 20 µg/mL
[3]; without serum
  MIC: < 0.1 µg/mL

## CCCCCCCCCCCC[N+](C)(C)CCOC(=O)C12CC3CC(CC(C3)C1)C2 [Example 4]
Trich. Foetus ISM 66/23; [6]
  MIC: 5 µg/mL
Pseudomonas Aeruginosa; 0.25% by weight
  animals alive on the 15th day: 4
  animals dead on the 15th day: 6
  % survivors: 40%
Pseudomonas Aeruginosa; 0.5% by weight
  animals alive on the 15th day: 6
  animals dead on the 15th day: 4
  % survivors: 60%
Pseudomonas Aeruginosa; 1% by weight
  animals alive on the 15th day: 6
  animals dead on the 15th day: 4
  % survivors: 60%
Pseudomonas Aeruginosa; 2% by weight
  animals alive on the 15th day: 7
  animals dead on the 15th day: 3
  % survivors: 70%
Pseudomonas Aeruginosa
  efficacy in vivo (in words): secure efficacy
Candida Albic. SKF 2270; [7]
  MIC: 20 µg/mL
Candida Albic. SKF 2270; [8]
  MIC: 0.2 µg/mL
Candida Albic. SKF 2270
  activity on Candida albicans, times greater than that of cetyl pyridine chloride: about 25 times
  activity on Candida albicans, times higher than that of cetyl pyridine chloride: 5-10 times
[1]; +10% serum
  MIC: 0.3 µg/mL
[1]; without serum
  MIC: < 0.1 µg/mL
Klens. Pneum. ISM; +10% serum
  MIC: 100 µg/mL
Klens. Pneum. ISM; without serum
  MIC: 2 µg/mL
Staph.Aureus Tour; +10% serum
  MIC: 5 µg/mL
Staph.Aureus Tour; without serum
  MIC: < 0.1 µg/mL
[4]; 0.1 g/l
  sterilization time: 7.5 min
[4]; 0.25 g/l
  sterilization time: 5 min
[4]; 0.5 g/l
  sterilization time: 1 min
[4]; 1 g/l
  sterilization time: 1 min
[5]; 0.1 g/l
  sterilization time: 2.5 min
[5]; 0.25 g/l
  sterilization time: 1 min
[5]; 0.5 g/l
  sterilization time: 1 min
[5]; 1 g/l
  sterilization time: 1 min
[2]
  in vivo activity against Trichophyton Mentagrophytes (in words): excellent "in vivo" activity against Trichophyton Mentagrophytes
Esch. Coli. SKF 12140; +10% serum
  MIC: 100 µg/mL
Esch. Coli. SKF 12140; without serum
  MIC: 2 µg/mL
[3]; [9]
  MIC: 50 µg/mL
[3]; [10]
  MIC: 0.1 µg/mL
